From ChEMBL document CHEMBL3885861, “Open TG-GATES”

Species: Rattus norvegicus
Assay: Open TG-GATES - Regimen: Daily Repeat
Type: toxicity, organism-based, Sprague-Dawley
Set-up: regimen Daily Repeat, gender Male, age 6 weeks
Settings: in vivo, po, 1000 mg/kg, […], route gavage, dose level High; for KIDNEY_L / KIDNEY_R / KIDNEY_TOTAL: tissue Kidney; for LIVER: tissue Liver; for A/G / ALP / ALT / AST / BUN / CRE / Ca / Cl / DBIL / GLC / IP / K / LDH / Na / PL / RALB / TBIL / TC / TG / TP / gamma-GTP: tissue Plasma

**Q.** With `CNC(=C[N+](=O)[O-])NCCSCc1ccc(CN(C)C)o1` [RANITIDINE] as the compound, how does the Lym (tissue Blood, time 28 day) read?
**A.** 77.2%

**Q.** What about the MCH (tissue Blood, time 28 day) of the same compound?
**A.** 20.1 pg

**Q.** And the MCHC (tissue Blood, time 28 day)?
**A.** 35.9%

**Q.** And the MCV (tissue Blood, time 28 day)?
**A.** 56.2 fL

**Q.** And the Mono (tissue Blood, time 28 day)?
**A.** 1.8%

**Q.** And the Neu (tissue Blood, time 28 day)?
**A.** 18.6%

**Q.** And the PT (tissue Blood, time 28 day)?
**A.** 12.2 s

**Q.** And the Plat (tissue Blood, time 28 day)?
**A.** 113 x10_4/uL

**Q.** And the RBC (tissue Blood, time 28 day)?
**A.** 769.8 x10_4/ul

**Q.** What about the Ret (tissue Blood, time 28 day) of the same compound?
**A.** 2.2%

**Q.** What about the WBC (tissue Blood, time 28 day) of the same compound?
**A.** 104.7 x10_2/uL

**Q.** What about the KIDNEY_L (time 7 day) of the same compound?
**A.** 1.1 g

**Q.** What about the KIDNEY_R (time 7 day) of the same compound?
**A.** 1.2 g

**Q.** What about the KIDNEY_TOTAL (time 7 day) of the same compound?
**A.** 2.3 g

**Q.** And the KIDNEY_L (time 14 day)?
**A.** 1.2 g

**Q.** What about the KIDNEY_R (time 14 day) of the same compound?
**A.** 1.2 g

**Q.** And the KIDNEY_TOTAL (time 14 day)?
**A.** 2.4 g

**Q.** And the KIDNEY_L (time 28 day)?
**A.** 1.4 g

**Q.** What about the KIDNEY_R (time 28 day) of the same compound?
**A.** 1.4 g

**Q.** And the KIDNEY_TOTAL (time 28 day)?
**A.** 2.8 g

**Q.** What about the LIVER (time 7 day) of the same compound?
**A.** 12.3 g

**Q.** What about the LIVER (time 14 day) of the same compound?
**A.** 14.2 g

**Q.** And the LIVER (time 28 day)?
**A.** 15.4 g

**Q.** And the A/G (time 7 day)?
**A.** 1.5

**Q.** What about the ALP (time 7 day) of the same compound?
**A.** 852.4 IU/L

**Q.** And the ALT (time 7 day)?
**A.** 37.2 IU/L

**Q.** What about the AST (time 7 day) of the same compound?
**A.** 65.4 IU/L

**Q.** What about the BUN (time 7 day) of the same compound?
**A.** 16.8 mg/dL

**Q.** What about the CRE (time 7 day) of the same compound?
**A.** 0.4 mg/dL

**Q.** What about the Ca (time 7 day) of the same compound?
**A.** 10.7 mg/dL

**Q.** And the Cl (time 7 day)?
**A.** 103.6 meq/L

**Q.** And the DBIL (time 7 day)?
**A.** 0.088 mg/dL

**Q.** What about the GLC (time 7 day) of the same compound?
**A.** 224.4 mg/dL

**Q.** And the IP (time 7 day)?
**A.** 7.8 mg/dL

**Q.** What about the K (time 7 day) of the same compound?
**A.** 3.7 meq/L

**Q.** What about the LDH (time 7 day) of the same compound?
**A.** 169.6 IU/L

**Q.** And the Na (time 7 day)?
**A.** 140.6 meq/L

**Q.** And the PL (time 7 day)?
**A.** 137.2 mg/dL

**Q.** What about the RALB (time 7 day) of the same compound?
**A.** 3.3 g/dL

**Q.** And the TBIL (time 7 day)?
**A.** 0.1 mg/dL

**Q.** What about the TC (time 7 day) of the same compound?
**A.** 76.8 mg/dL

**Q.** What about the TG (time 7 day) of the same compound?
**A.** 82.4 mg/dL

**Q.** And the TP (time 7 day)?
**A.** 5.5 g/dL

**Q.** And the gamma-GTP (time 7 day)?
**A.** 0.8 IU/L

**Q.** What about the A/G (time 14 day) of the same compound?
**A.** 1.4

**Q.** What about the ALP (time 14 day) of the same compound?
**A.** 785 IU/L

**Q.** What about the ALT (time 14 day) of the same compound?
**A.** 37.2 IU/L

**Q.** And the AST (time 14 day)?
**A.** 62.8 IU/L

**Q.** What about the BUN (time 14 day) of the same compound?
**A.** 17.6 mg/dL

**Q.** And the CRE (time 14 day)?
**A.** 0.5 mg/dL

**Q.** What about the Ca (time 14 day) of the same compound?
**A.** 10.5 mg/dL

**Q.** What about the Cl (time 14 day) of the same compound?
**A.** 103 meq/L

**Q.** What about the DBIL (time 14 day) of the same compound?
**A.** 0.08 mg/dL

**Q.** And the GLC (time 14 day)?
**A.** 193 mg/dL

**Q.** What about the IP (time 14 day) of the same compound?
**A.** 7.4 mg/dL

**Q.** And the K (time 14 day)?
**A.** 4.2 meq/L

**Q.** And the LDH (time 14 day)?
**A.** 205.8 IU/L

**Q.** What about the Na (time 14 day) of the same compound?
**A.** 141.8 meq/L

**Q.** And the PL (time 14 day)?
**A.** 137.8 mg/dL

**Q.** And the RALB (time 14 day)?
**A.** 3.5 g/dL

**Q.** And the TBIL (time 14 day)?
**A.** 0.1 mg/dL

**Q.** What about the TC (time 14 day) of the same compound?
**A.** 66.4 mg/dL

**Q.** And the TG (time 14 day)?
**A.** 104 mg/dL

**Q.** What about the TP (time 14 day) of the same compound?
**A.** 5.8 g/dL

**Q.** And the gamma-GTP (time 14 day)?
**A.** 1.2 IU/L

**Q.** What about the A/G (time 28 day) of the same compound?
**A.** 1.3

**Q.** What about the ALP (time 28 day) of the same compound?
**A.** 562.8 IU/L

**Q.** And the ALT (time 28 day)?
**A.** 38.8 IU/L

**Q.** And the AST (time 28 day)?
**A.** 61 IU/L

**Q.** And the BUN (time 28 day)?
**A.** 17.2 mg/dL

**Q.** And the CRE (time 28 day)?
**A.** 0.5 mg/dL

**Q.** And the Ca (time 28 day)?
**A.** 10.5 mg/dL

**Q.** What about the Cl (time 28 day) of the same compound?
**A.** 102.2 meq/L

**Q.** And the DBIL (time 28 day)?
**A.** 0.094 mg/dL

**Q.** And the GLC (time 28 day)?
**A.** 198.6 mg/dL

**Q.** And the IP (time 28 day)?
**A.** 7.2 mg/dL

**Q.** What about the K (time 28 day) of the same compound?
**A.** 3.8 meq/L

**Q.** And the LDH (time 28 day)?
**A.** 114.2 IU/L

**Q.** What about the Na (time 28 day) of the same compound?
**A.** 141.6 meq/L

**Q.** And the PL (time 28 day)?
**A.** 142.6 mg/dL

**Q.** And the RALB (time 28 day)?
**A.** 3.5 g/dL

**Q.** What about the TBIL (time 28 day) of the same compound?
**A.** 0.2 mg/dL

**Q.** What about the TC (time 28 day) of the same compound?
**A.** 70.4 mg/dL

**Q.** And the TG (time 28 day)?
**A.** 96 mg/dL

**Q.** And the TP (time 28 day)?
**A.** 6.1 g/dL

**Q.** And the gamma-GTP (time 28 day)?
**A.** 0.8 IU/L
